# In ChEMBL document CHEMBL4402613, “Targeting ALK2: An Open Science Approach to Developing Therapeutics for the Treatment of Diffuse Intrinsic Pontine Glioma” (J Med Chem, 2020):
# The source made the active and inactive calls. No cut-off for these calls is given here.
# Assays:
# [1] = target: T1, TGF-beta receptor type-1 (Homo sapiens, UniProt P36897); type: single protein
# T1 sequence (P36897 whole entry): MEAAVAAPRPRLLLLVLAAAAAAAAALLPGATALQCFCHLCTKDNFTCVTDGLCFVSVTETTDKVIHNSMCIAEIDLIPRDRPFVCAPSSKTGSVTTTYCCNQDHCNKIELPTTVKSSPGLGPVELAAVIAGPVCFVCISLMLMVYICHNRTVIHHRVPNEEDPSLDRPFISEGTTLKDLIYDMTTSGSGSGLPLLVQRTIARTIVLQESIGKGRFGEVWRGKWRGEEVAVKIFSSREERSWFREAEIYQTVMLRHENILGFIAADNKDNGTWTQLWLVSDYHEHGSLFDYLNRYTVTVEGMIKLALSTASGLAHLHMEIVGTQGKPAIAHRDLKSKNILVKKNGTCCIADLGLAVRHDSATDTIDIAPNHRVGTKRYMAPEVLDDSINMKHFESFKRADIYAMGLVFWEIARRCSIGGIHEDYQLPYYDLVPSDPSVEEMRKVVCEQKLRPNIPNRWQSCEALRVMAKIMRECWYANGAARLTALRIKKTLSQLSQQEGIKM
# Description: Inhibition of human ALK5 using casein as substrate in presence of 10 uM [gamma33P] ATP by radioactive assay
# [2] = target: T1, TGF-beta receptor type-1; type: cell-based, HEK293
# Description: Inhibition of ALK5 (unknown origin) expressed in HEK293 cells transfected with CAGA-luciferase and Renilla luciferase reporter measured after 24 hrs by dual luciferase reporter assay
# [3] = target: T2, Activin receptor type-1 (Homo sapiens, UniProt Q04771); test: Inhibition of C-terminal nanoluciferase-fused ALK2 (unknown origin) expressed in HEK293 cells incubated for 2 hrs followed by NanoBRET NanoGlo Substrate addition by NanoBRET assay; type: cell-based
# T2 sequence (Q04771 whole entry): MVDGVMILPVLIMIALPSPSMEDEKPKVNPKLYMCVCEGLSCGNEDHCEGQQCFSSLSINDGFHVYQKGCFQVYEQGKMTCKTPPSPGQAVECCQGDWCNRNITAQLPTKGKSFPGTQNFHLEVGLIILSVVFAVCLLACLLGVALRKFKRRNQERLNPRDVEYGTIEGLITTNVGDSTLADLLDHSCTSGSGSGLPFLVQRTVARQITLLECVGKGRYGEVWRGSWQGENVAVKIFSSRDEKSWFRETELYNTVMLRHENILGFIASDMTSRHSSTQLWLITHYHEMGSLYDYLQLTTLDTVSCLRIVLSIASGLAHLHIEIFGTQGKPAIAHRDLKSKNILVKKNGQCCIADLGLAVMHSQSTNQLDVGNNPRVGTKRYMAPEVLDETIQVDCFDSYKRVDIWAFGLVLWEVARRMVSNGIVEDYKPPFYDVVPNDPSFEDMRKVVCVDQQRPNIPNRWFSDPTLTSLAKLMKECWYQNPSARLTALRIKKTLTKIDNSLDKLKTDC
# [4] = target: T2, Activin receptor type-1
# Description: Inhibition of human ALK2 using casein as substrate in presence of 10 uM [gamma33P] ATP by radioactive assay
# [5] = target: Activin receptor type-1 (Homo sapiens, UniProt Q04771, G328V); test: Inhibition of ALK2 G328V mutant (unknown origin)
# Chain of Activin receptor type-1 (Homo sapiens, UniProt Q04771, G328V) (Q04771 21-509 G328V limits assumed): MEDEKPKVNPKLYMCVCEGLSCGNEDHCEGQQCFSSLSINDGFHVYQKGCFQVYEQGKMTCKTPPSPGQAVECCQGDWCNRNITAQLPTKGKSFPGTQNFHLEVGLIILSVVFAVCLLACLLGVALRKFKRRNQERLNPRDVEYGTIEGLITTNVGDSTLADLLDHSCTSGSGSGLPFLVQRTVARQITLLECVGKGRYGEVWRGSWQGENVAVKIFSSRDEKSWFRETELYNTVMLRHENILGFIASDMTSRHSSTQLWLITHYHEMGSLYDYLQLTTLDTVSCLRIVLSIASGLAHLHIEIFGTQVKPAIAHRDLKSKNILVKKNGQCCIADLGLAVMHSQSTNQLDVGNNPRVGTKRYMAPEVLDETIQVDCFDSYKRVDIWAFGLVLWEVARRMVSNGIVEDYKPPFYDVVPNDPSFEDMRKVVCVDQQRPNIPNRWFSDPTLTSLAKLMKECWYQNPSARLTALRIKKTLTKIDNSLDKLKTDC
# [6] = in vitro; settings: human, Caco-2
# Description: Apparent permeability across basolateral to apical membrane in human Caco2 cells at 5 uM incubated for 120 mins in orbital shaker by LC-QTOF/MS analysis
# [7] = in vitro; settings: human, Caco-2; remark: listed apart in the source
# Description: Apparent permeability across apical to basolateral membrane in human Caco2 cells at 5 uM incubated for 120 mins in orbital shaker by LC-QTOF/MS analysis
# [8] = mouse, in vivo, po, 10 mg/kg, 24 h
# [9] = mouse, in vivo, po, 10 mg/kg, 24 h; remark: listed apart in the source
# [10] = mouse, in vivo, po, 10 mg/kg, 24 h; remark: listed apart in the source
# Description: Half life in CB17 SCID mouse at 10 mg/kg, po measured up to 24 hrs by LC-MS/MS analysis
# [11] = mouse, microsomes, 1 h, 1 µM
# Description: Microsomal stability in CD-1 mouse liver microsomes assessed as parent compound remaining at 1 uM and 37 degree C measured after 60 mins in presence of NADP+ by LC-QTOF/MS analysis
# [12] = human, microsomes, 1 h, 1 µM
# Description: Microsomal stability in human liver microsomes assessed as parent compound remaining at 1 uM and 37 degree C measured after 60 mins in presence of NADP+ by LC-QTOF/MS analysis
# [13] = target: Activin receptor type-1 (Homo sapiens, UniProt Q04771, R258G); test: Inhibition of ALK2 R258G mutant (unknown origin)
# Chain of Activin receptor type-1 (Homo sapiens, UniProt Q04771, R258G) (Q04771 21-509 R258G limits assumed): as the sequence (Q04771 21-509 G328V limits assumed) above, with R238G, V308G counted along it
# [14] = target: Activin receptor type-1 (Homo sapiens, UniProt Q04771, R206H); test: Inhibition of human ALK2 R206H mutant using casein as substrate in presence of 10 uM [gamma33P] ATP by radioactive assay
# Chain of Activin receptor type-1 (Homo sapiens, UniProt Q04771, R206H) (Q04771 21-509 R206H limits assumed): as the sequence (Q04771 21-509 G328V limits assumed) above, with R186H, V308G counted along it
# [15] = target: Bone morphogenetic protein receptor type-1B (Homo sapiens) (UniProt O00238); test: Inhibition of ALK6 (unknown origin) at 1 uM
# Chain of Bone morphogenetic protein receptor type-1B (Homo sapiens) (O00238 whole entry): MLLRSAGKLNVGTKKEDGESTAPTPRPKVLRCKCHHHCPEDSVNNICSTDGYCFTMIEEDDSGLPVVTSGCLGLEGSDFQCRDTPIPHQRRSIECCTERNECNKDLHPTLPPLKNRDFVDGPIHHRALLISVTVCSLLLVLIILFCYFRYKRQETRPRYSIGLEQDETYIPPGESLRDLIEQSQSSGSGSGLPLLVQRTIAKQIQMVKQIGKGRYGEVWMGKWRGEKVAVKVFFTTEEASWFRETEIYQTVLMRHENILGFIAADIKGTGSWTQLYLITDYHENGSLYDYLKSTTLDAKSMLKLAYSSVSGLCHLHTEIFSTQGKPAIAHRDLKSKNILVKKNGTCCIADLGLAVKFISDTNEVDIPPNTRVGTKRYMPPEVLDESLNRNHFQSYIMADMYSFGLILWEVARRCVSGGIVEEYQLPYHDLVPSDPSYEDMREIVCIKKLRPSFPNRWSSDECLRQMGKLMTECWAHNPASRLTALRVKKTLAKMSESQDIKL
# [16] = target: Misshapen-like kinase 1 (Homo sapiens) (UniProt Q8N4C8); test: Inhibition of MINK (unknown origin) at 1 uM
# Chain of Misshapen-like kinase 1 (Homo sapiens) (Q8N4C8 whole entry, looked up): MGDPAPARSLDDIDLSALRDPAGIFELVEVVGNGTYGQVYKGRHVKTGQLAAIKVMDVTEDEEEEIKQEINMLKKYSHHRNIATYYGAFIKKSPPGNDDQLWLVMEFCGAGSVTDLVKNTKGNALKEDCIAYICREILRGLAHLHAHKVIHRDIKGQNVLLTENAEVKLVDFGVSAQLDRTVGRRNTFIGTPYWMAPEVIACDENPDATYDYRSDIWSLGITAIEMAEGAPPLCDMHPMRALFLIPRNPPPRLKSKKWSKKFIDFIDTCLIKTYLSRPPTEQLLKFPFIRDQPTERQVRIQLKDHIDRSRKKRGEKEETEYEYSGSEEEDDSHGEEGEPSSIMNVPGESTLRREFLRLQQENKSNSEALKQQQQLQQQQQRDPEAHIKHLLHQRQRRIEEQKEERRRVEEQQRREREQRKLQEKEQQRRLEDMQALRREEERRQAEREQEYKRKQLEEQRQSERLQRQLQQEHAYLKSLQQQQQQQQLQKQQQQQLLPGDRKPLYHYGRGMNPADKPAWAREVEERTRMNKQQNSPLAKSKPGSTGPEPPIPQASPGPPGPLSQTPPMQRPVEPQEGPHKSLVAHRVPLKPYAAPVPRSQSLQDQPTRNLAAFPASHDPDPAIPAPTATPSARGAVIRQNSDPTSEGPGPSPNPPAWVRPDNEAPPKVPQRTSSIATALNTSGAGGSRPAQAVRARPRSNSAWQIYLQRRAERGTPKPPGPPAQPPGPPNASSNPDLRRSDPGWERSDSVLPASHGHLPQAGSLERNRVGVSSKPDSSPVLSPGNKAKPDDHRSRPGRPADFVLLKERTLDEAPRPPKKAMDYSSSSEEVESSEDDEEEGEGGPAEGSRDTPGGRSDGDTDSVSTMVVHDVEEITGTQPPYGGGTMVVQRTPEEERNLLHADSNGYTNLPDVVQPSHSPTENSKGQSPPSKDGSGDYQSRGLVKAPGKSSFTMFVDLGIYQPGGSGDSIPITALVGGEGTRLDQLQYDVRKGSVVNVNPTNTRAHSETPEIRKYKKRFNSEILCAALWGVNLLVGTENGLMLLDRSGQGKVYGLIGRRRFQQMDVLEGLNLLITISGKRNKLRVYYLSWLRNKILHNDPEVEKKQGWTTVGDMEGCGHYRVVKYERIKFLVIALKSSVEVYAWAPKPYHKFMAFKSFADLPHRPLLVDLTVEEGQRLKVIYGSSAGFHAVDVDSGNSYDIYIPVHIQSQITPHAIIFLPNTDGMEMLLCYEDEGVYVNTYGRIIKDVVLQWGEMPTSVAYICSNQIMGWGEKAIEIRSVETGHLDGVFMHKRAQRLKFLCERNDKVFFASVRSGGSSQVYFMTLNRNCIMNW
# [17] = target: T3, Serine/threonine-protein kinase A-Raf (Homo sapiens) (UniProt P10398); test: Inhibition of ARAF (unknown origin) at 1 uM
# T3 sequence (whole entry): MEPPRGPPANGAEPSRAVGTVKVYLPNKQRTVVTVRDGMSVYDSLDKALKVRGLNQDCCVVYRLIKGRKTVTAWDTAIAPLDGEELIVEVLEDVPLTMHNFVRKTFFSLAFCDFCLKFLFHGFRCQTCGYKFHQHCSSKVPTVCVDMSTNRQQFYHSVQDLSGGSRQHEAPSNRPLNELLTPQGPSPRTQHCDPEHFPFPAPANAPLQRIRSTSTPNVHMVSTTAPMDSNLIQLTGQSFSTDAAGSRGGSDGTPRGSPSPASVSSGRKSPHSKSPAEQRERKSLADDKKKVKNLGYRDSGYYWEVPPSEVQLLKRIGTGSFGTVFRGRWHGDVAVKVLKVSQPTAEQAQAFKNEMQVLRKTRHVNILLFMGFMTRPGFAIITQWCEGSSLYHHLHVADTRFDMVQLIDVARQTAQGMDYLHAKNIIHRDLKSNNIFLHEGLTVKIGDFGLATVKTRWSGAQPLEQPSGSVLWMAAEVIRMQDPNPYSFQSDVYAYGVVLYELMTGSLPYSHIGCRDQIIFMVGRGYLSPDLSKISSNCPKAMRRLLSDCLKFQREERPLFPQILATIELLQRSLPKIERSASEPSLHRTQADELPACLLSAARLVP
# [18] = target: Bone morphogenetic protein receptor type-1A (Homo sapiens) (UniProt P36894); test: Inhibition of ALK3 (unknown origin) at 1 uM
# Chain of Bone morphogenetic protein receptor type-1A (Homo sapiens) (P36894 whole entry): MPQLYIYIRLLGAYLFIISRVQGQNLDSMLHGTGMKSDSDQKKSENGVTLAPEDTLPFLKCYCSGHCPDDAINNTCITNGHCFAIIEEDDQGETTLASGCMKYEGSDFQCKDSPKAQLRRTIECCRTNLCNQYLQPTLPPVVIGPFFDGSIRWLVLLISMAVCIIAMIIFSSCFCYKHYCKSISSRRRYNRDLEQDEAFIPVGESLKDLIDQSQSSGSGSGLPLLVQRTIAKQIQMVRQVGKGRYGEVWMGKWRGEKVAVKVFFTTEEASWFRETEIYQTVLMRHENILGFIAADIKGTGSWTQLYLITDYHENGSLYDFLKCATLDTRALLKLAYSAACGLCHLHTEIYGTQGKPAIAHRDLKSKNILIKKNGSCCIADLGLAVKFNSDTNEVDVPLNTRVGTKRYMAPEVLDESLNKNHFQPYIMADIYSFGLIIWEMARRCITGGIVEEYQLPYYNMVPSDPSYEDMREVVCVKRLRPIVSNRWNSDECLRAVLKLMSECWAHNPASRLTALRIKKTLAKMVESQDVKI
# [19] = target: T4, Non-receptor tyrosine-protein kinase TNK1 (Homo sapiens) (UniProt Q13470); test: Inhibition of TNK1 (unknown origin) at 1 uM
# T4 sequence (whole entry): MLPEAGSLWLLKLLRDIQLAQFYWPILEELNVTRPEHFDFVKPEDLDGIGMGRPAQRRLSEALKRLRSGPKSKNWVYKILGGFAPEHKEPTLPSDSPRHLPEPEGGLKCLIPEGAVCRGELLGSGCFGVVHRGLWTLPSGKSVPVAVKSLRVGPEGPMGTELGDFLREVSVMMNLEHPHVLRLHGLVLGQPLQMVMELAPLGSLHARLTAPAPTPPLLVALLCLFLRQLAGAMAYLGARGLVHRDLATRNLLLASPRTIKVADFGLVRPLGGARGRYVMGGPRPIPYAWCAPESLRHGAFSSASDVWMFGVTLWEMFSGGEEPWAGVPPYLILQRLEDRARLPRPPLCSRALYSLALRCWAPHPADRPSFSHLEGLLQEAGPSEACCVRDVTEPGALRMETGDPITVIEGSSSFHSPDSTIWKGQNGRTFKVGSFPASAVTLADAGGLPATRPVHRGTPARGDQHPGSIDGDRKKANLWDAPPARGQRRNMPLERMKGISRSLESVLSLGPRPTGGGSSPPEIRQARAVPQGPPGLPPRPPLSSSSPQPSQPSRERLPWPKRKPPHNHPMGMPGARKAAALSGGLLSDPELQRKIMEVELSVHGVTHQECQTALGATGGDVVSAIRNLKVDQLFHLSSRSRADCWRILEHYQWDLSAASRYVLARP
# [20] = target: Activin receptor type-1-like (Homo sapiens) (UniProt P37023); test: Inhibition of ALK1 (unknown origin) at 1 uM
# Chain of Activin receptor type-1-like (Homo sapiens) (P37023 whole entry): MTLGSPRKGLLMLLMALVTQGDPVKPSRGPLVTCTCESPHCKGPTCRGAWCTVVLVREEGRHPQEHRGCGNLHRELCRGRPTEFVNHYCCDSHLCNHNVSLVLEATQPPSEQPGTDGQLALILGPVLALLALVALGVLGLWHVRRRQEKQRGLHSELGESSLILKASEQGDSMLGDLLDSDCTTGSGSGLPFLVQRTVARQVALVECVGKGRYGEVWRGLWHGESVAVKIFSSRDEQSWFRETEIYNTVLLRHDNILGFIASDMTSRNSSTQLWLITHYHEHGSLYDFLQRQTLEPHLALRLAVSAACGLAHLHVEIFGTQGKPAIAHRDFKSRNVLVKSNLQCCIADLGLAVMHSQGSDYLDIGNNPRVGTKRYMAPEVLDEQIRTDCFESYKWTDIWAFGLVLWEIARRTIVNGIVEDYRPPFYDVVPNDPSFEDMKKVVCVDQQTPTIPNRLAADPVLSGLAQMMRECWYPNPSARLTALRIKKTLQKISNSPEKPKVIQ
# [21] = target: Mitogen-activated protein kinase kinase kinase kinase 4 (Homo sapiens) (UniProt O95819); test: Inhibition of MAP4K4 (unknown origin) at 1 uM
# Chain of Mitogen-activated protein kinase kinase kinase kinase 4 (Homo sapiens) (O95819 2-1239 limits assumed): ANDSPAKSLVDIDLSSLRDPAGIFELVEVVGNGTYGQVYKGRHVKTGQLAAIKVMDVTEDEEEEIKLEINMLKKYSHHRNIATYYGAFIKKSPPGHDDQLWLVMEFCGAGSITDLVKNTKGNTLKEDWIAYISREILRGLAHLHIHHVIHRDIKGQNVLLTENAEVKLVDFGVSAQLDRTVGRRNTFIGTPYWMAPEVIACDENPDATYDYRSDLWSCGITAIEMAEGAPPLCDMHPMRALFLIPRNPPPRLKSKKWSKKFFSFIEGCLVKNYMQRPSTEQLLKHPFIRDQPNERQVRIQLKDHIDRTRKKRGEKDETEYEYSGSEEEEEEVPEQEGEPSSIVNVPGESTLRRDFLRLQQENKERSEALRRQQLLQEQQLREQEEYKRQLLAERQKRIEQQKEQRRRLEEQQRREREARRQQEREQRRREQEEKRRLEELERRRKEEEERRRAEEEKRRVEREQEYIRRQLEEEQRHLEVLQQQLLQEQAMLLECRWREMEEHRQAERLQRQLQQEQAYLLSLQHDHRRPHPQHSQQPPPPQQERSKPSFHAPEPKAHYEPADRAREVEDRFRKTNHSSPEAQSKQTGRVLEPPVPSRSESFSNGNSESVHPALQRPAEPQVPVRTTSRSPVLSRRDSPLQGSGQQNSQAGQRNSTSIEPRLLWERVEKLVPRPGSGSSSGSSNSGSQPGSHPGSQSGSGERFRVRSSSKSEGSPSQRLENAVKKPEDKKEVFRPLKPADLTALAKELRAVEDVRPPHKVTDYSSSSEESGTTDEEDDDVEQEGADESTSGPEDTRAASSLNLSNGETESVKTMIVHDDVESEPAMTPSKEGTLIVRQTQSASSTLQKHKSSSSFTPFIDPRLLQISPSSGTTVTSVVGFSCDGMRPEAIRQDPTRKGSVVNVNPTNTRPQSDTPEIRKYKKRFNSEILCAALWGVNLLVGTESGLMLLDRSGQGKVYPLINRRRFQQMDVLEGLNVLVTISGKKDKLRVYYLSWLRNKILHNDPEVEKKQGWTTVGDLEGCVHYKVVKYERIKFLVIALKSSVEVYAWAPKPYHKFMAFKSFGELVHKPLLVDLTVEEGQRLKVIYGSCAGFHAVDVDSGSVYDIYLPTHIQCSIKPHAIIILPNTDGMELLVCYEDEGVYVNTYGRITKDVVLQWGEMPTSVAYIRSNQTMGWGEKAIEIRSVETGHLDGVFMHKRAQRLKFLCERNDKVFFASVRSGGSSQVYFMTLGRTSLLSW
SMILES,IC50 [1] [nM],IC50 [2] [nM],IC50 [3] [nM],IC50 [4] [nM],other results
COCc1cc(-c2cncc(-c3ccc(N4CCNCC4)cc3)c2C)ccc1C(N)=O,> 5000,> 5000,3840,687,
Cc1c(-c2ccc(C(N)=O)cc2)cncc1-c1ccc(N2CCNCC2)cc1,> 5000,> 5000,2770,477,
Cc1c(-c2ccc(N3CCNCC3)cc2)cncc1-c1ccc(C(N)=O)c(F)c1,> 5000,> 5000,1010,263,
COc1c(C(N)=O)csc1-c1cncc(-c2ccc(N3CCNCC3)cc2)c1C,> 5000,> 5000,> 5000,> 1000,
COc1cc(-c2cncc(-c3ccc(N4CCNCC4)cc3)c2C)cc(F)c1C(N)=O,,,81,,"IC50 [5]: 4 nM; Papp B→A at 2 h, 5 µM [6]: 10.7 ×10⁻⁶ cm/s; Papp A→B at 2 h, 5 µM [7]: 0.3 ×10⁻⁶ cm/s; AUC [8]: 296 ng·h/mL; Cmax [9]: 97 ng/mL; t1/2 [10]: 1.31 h; Stability [11]: > 85%; Stability [12]: > 85%; IC50 [13]: 7 nM; IC50 [14]: 8 nM"
COc1cc(C(N)=O)cc(-c2cncc(-c3ccc(N4CCNCC4)cc3)c2C)c1,> 5000,> 5000,588,102,
COc1cc(-c2cncc(-c3ccc(N4CCNCC4)cc3)c2C)ccc1C(=O)N(C)C,> 5000,> 5000,> 5000,> 1000,
COc1cc(-c2cncc(-c3ccc(N4C[C@@H](C)N(C)[C@@H](C)C4)cc3)c2C)cc(OC)c1C(N)=O,52,283,,3,
COc1ccc(-c2cncc(-c3ccc(N4CCNCC4)cc3)c2C)cc1C(N)=O,> 5000,> 5000,694,> 1000,
COc1cc(-c2cncc(-c3ccc(N4CCNCC4)cc3)c2C)cc(Cl)c1C(N)=O,2080,> 5000,93,,IC50 [5]: < 2 nM; IC50 [13]: 4 nM; IC50 [14]: 5 nM
CNC(=O)c1ccc(-c2cncc(-c3ccc(N4CCNCC4)cc3)c2C)cc1OC,> 5000,> 5000,> 5000,> 1000,
COc1c(-c2cncc(-c3ccc(N4CCNCC4)cc3)c2C)csc1C(N)=O,> 5000,> 5000,2810,712,
COc1cc(-c2cncc(-c3ccc(N4CCNCC4)cc3)c2C)cc(OC)c1C(N)=O,,,178,,
COc1cc(-c2cncc(-c3ccc(N4CCNCC4)cc3)c2C)ccc1C(N)=O,,,55,,IC50 [5]: 5 nM; IC50 [13]: 9 nM; IC50 [14]: 9 nM
COc1cc(-c2cncc(-c3ccc(N4CCN(C(C)C)CC4)cc3)c2C)cc(F)c1C(N)=O,,,,,inhibition [15]: Active; inhibition [16]: Active; inhibition [17]: Active; inhibition [18]: Active; inhibition [19]: Active; inhibition [20]: Active; inhibition [21]: Active
COc1cc(-c2cncc(-c3ccc(N4CCNCC4)cc3)c2C)sc1C(N)=O,> 5000,> 5000,3370,751,
Cc1c(-c2ccc(N3CCNCC3)cc2)cncc1-c1ccc2c(c1)CNC2=O,> 5000,4810,2340,,IC50 [5]: 171 nM; IC50 [13]: 363 nM; IC50 [14]: 226 nM
COc1cc(-c2cncc(-c3ccc(N4CCN(C(C)C)CC4)cc3)c2C)cc(OC)c1C(N)=O,66,276,18,5,
COc1cc(-c2cncc(-c3ccc(N4CCN(C)CC4)cc3)c2C)cc(OC)c1C(N)=O,75,249,19,< 3,IC50 [5]: < 2 nM; IC50 [13]: < 2 nM; IC50 [14]: 4 nM
